This passage reports MIC results from US11279735B2, “Cyclic peptide antibiotics” (priority 2017, dated 2022).

≈ marks a conversion by molar mass, not a printed value. *1 amine or outer side, *2 acyl side, *3 side chain or, on linkers, in order; H or OH if unused. Where a SMILES comes first, the peptide text is derived from it. [ ]: non-standard residue; d: D form. X18 = CCCCCC[C@@H](OCCN[*:1])[C@@H](Cc1ccc(C)cc1)C(=O)[*:2]; X14 = CCCCCC[C@@H](OCCN[*:1])[C@@H](C)C(=O)[*:2]; aIle = CC[C@@H](C)[C@H](N)C(=O)O; NMeL = CN[C@@H](CC(C)C)C(=O)O; Dap = NC[C@H](N)C(=O)O

This assay deals with Escherichia coli (E. coli) strain CFT073 ATCC 700928. The format is cell-based. The note with it: ATCC 700928, 22 h. As for the experimental part: In vitro antimicrobial activity of each compound was determined by measuring minimal inhibitor concentrations (MICs) using the broth micro-dilution technique as approved by the Clinical and Laboratory Standards Institute (CLSI) (Methods for Dilution Antimicrobial Susceptibility Tests for Bacteria that Grow Aerobically; Approved Standard—Eighth Edition. CLSI document M07-A8. Wayne, Pa.: Clinical and Laboratroy Standards; 2009). Antibacterial activity was measure against Escherichia coli (E. coli) strain CFT073 ATCC 700928, which is a clinically relevant Gram-negative strain. Cells were inoculated onto plates of Mueller Hinton Agar and grown at 37° C. for 16-18 hours. Inocula suspensions were prepared by scraping cells into 1 mL of testing media (Mueller Hinton II cation adjusted Broth supplemented with 0.002% v/v Tween-80) and diluting to a final OD600 nm of 0.01.
Test compounds were prepared in DMSO at a concentration of 100 uM The compounds were tested under several different dilution formats and the data are reported in Tables 6, 7 and 8. In protocol 1, the compound stocks were diluted into testing media at a concentration of 64 μg/ml and serial 2-fold dilutions were made in the same media, in 96-well U bottom microtiter dishes, for a total of 10 compound concentrations. In protocol 2, the compound stocks were diluted into testing media at a concentration of 4 μg/mL and serial 2-fold dilutions were made in the same media, in 96-well U bottom microtiter dishes, for a total of 10 compound concentrations. In protocol 3, compound stocks were diluted into testing media at a concentration of 0.5 μg/mL, with serial 2-fold dilutions conducted as described above. In protocol 4, compound stocks were diluted into testing media at a concentration of 0.13 μg/mL, with serial 2-fold dilutions conducted as described above. Inocula suspensions were added to the 2-fold serial dilutions of test compounds to a final density of OD OD600 nm of 0.0005 and incubated at 35° C. for 22 hours.
The MIC is the least concentration at which growth counts as inhibited. In the case of `CCCCCCC1OC(=O)CNC(=O)[C@H](CNC(=O)C2CC3(CNC3)C2)NC(=O)[C@H](CN)NC(=O)[C@H](C2CCCCC2)NC(=O)[C@H](CC(C)C)N(C)C(=O)[C@@H]1C` (stereo in doubt) [Example 165, N-[[(6S,9S,12S,15S,18R,19R)-9-(Aminomethyl)-12-cyclohexyl-19-hexyl-15-isobutyl-16,18-dimethyl-2,5,8,11,14,17-hexaoxo-1-oxa-4,7,10,13,16-pentazacyclononadec-6-yl]methyl]-2-azaspiro[3.3]heptane-6-carboxamide], the MIC is 4.4 µM (≈ 3.47 µg/mL).

As for `CCCCCC[C@H]1OC(=O)CNC(=O)[C@H](CNC(C)=O)NC(=O)[C@H](CN)NC(=O)[C@H](C2CCCCC2)NC(=O)[C@H](CC(C)C)N(C)C(=O)[C@@H]1C` [Example 124, N-[[(6S,9S,12S,15S,18R,19R)-9-(aminomethyl)-12-cyclohexyl-19-hexyl-15-isobutyl-16,18-dimethyl-2,5,8,11,14,17-hexaoxo-1-oxa-4,7,10,13,16-pentazacyclononadec-6-yl]methyl]acetamide], the MIC stood at 18 µM (≈ 12.7 µg/mL).

`CC(C)CCCCCC[C@H]1OC(=O)CNC(=O)[C@H]([C@H](C)O)NC(=O)[C@H](CN)NC(=O)[C@H](C2CCCCC2)NC(=O)[C@H](CC(C)C)N(C)C(=O)[C@@H]1C` [Example 65, (6S,9S,12S,15S,18R,19R)-9-(Aminomethyl)-12-cyclohexyl-6-((S)-1-hydroxyethyl)-15-isobutyl-16,18-dimethyl-19-(7-methyloctyl)-1-oxa-4,7,10,13,16-pentaazacyclononadecane-2,5,8,11,14,17-hexaone] yielded an MIC of 0.78 µM (≈ 0.564 µg/mL).

`CCCCCC[C@H]1OC(=O)CNC(=O)[C@H]([C@H](C)O)NC(=O)[C@H](CN)NC(=O)[C@H](C2CCCCC2)NC(=O)[C@H](CC(C)C)N(C)C(=O)[C@@H]1CCc1ccc(-c2ccccc2)cc1` [Example 108, (6S,9S,12S,15S,18R,19R)-9-(aminomethyl)-12-cyclohexyl-19-hexyl-15-isobutyl-16-methyl-18-[2-(4-phenylphenyl)ethyl]-6-[(1S)-1-hydroxyethyl]-1-oxa-4,7,10,13,16-pentazacyclononadecane-2,5,8,11,14,17-hexone] gave an MIC of 35 µM (≈ 29.6 µg/mL).

For `CCCCCC[C@H]1OC(=O)CNC(=O)[C@H]([C@H](C)O)NC(=O)[C@H](CN)NC(=O)[C@H](C2CCCCC2)NC(=O)[C@H](CC(C)C)N(C)C(=O)[C@@H]1Cc1ccccc1C` [Example 120, (6S,9S,12S,15S,18R,19R)-9-(aminomethyl)-12-cyclohexyl-19-hexyl-15-isobutyl-16-methyl-18-(o-tolylinethyl)-6-[(1S)-1-hydroxyethyl]-1-oxa-4,7,10,13,16-pentazacyclononadecane-2,5,8,11,14,17-hexone], the MIC turned out to be 3.1 µM (≈ 2.39 µg/mL).

Consider `CC[C@@H](C)[C@@H]1NC(=O)[C@H](CC(C)C)N(C)C(=O)[C@H](C)[C@@H](CCC23CC4CC(CC(C4)C2)C3)OC(=O)CNC(=O)[C@H](CO)NC(=O)[C@H](CN)NC1=O` [Example 94, (6S,9S,12S,15S,18R,19R)-19-[2-(1-adamantyl)ethyl]-9-(aminomethyl)-6-(hydroxymethyl)-15-isobutyl-16,18-dimethyl-12-[(1R)-1-methylpropyl]-1-oxa-4,7,10,13,16-pentazacyclononadecane-2,5,8,11,14,17-hexone], for which the MIC amounted to 4.4 µM (≈ 3.16 µg/mL).

In turn, `CCCCCC[C@H]1OC(=O)CNC(=O)[C@H]([C@H](C)O)NC(=O)[C@H](CN)NC(=O)[C@H]([C@H](C)CC)NC(=O)[C@H](CC2CCCC2)N(C)C(=O)[C@@H]1C` [Example 104, (6S,9S,12S,15S,18R,19R)-9-(aminomethyl)-15-(cyclopentylmethyl)-19-hexyl-16,18-dimethyl-6-[(1S)-1-hydroxyethyl]-12-[(1R)-1-methylpropyl]-1-oxa-4,7,10,13,16-pentazacyclononadecane-2,5,8,11,14,17-hexone] displayed an MIC of 6.3 µM (≈ 4.29 µg/mL).

With `CCCCCC[C@H]1OCCNC(=O)[C@H](CO)NC(=O)[C@H](CN)NC(=O)[C@H]([C@H](C)CC)NC(=O)[C@H](CC(C)C)N(C)C(=O)[C@@H]1Cc1ccc(C)cc1` [Example 110, (6S,9S,12S,15S,18R,19R)-9-(aminomethyl)-19-hexyl-6-(hydroxymethyl)-15-isobutyl-16-methyl-18-(p-tolylmethyl)-12-[(1R)-1-methylpropyl]-1-oxa-4,7,10,13,16-pentazacyclononadecane-5,8,11,14,17-pentone] (cyclo([Dap]S[X18][NMeL][aIle])), the minimal inhibitory concentration (MIC) was found to be 25 µM (≈ 17.9 µg/mL).

`CCCCCCCCCC[C@H]1OC(=O)CNC(=O)[C@H](Cc2c[nH]nn2)NC(=O)[C@H](CN)NC(=O)[C@H](C2CCCCC2)NC(=O)[C@H](CC(C)C)N(C)C(=O)[C@@H]1C` [Example 56, (6S,9S,12S,15S,18R,19R)-6-((1H-1,2,3-triazol-4-yl)methyl)-9-(aminomethyl)-12-cyclohexyl-19-decyl-15-isobutyl-16,18-dimethyl-1-oxa-4,7,10,13,16-pentaazacyclononadecane-2,5,8,11,14,17-hexaone] yielded an MIC of 4.4 µM (≈ 3.41 µg/mL).

In the case of `CCCCCC[C@H]1OC(=O)CNC(=O)[C@H]([C@H](C)O)NC(=O)[C@H](CO)NC(=O)[C@H]([C@H](C)CC)NC(=O)[C@H](CC(C)C)N(C)C(=O)[C@@H]1CCCc1ccc(C)cc1` [Example 9, (6S,9S,12S,15S,18R,19R)-12-((R)-sec-butyl)-19-hexyl-6-((S)-1-hydroxyethyl)-9-(hydroxymethyl)-15-isobutyl-16-methyl-18-(3-(p-tolyl)propyl)-1-oxa-4,7,10,13,16-pentaazacyclononadecane-2,5,8,11,14,17-hexaone], the minimum inhibitory concentration (MIC) was determined as 6.3 µM (≈ 4.88 µg/mL).

As for `CCCCCCCCCC[C@H]1OC(=O)CNC(=O)[C@H](CO)NC(=O)[C@H](CO)NC(=O)[C@H](C2CCCCC2)NC(=O)[C@H](CC(C)C)N(C)C(=O)[C@@H]1C` [Example 7, (6S,9S,12S,15S,18R,19R)-12-cyclohexyl-19-decyl-6,9-bis(hydroxymethyl)-15-isobutyl-16,18 dimethyl-1-oxa-4,7,10,13,16-pentazacyclononadecane-2,5,8,11,14,17-hexone], the MIC is 3.1 µM (≈ 2.24 µg/mL).

`CCCCCC[C@H]1OCCNC(=O)[C@H](CO)NC(=O)[C@H](CN)NC(=O)[C@H]([C@H](C)CC)NC(=O)[C@H](CC(C)C)N(C)C(=O)[C@@H]1C` [Example 113, (6S,9S,12S,15S,18R,19R)-9-(aminomethyl)-19-hexyl-6-(hydroxymethyl)-15-isobutyl-16,18-dimethyl-12-[(1R)-1-methylpropyl]-1-oxa-4,7,10,13,16-pentazacyclononadecane-5,8,11,14,17-pentone] (cyclo([Dap]S[X14][NMeL][aIle])) registered a minimal inhibitory concentration (MIC) of 50 µM (≈ 31.3 µg/mL).

Consider `CCCCCC[C@H]1OC[C@@H](C)NC(=O)[C@H](COc2ccc(CCN)cc2)NC(=O)[C@H](CN)NC(=O)[C@H](C2CCCCC2)NC(=O)[C@H](CC(C)C)N(C)C(=O)[C@@H]1C` [Example 174, (3R,6S,9S,12S,15S,18R,19R)-6-((4-(2-Aminoethyl)phenoxy)methyl)-9-(aminomethyl)-12-cyclohexyl-19-hexyl-15-isobutyl-3,16,18-trimethyl-1-oxa-4,7,10,13,16-pentaazacyclononadecane-5,8,11,14,17-pentaone], for which the MIC is 1.6 µM (≈ 1.26 µg/mL).

`CCCCCCCCCC[C@H]1OC(=O)CNC(=O)[C@H](CN)NC(=O)[C@H](CO)NC(=O)[C@H]([C@@H](C)CC)NC(=O)[C@H](CC(C)C)N(C)C(=O)[C@@H]1C` [Example 19, (6S,9S,12S,15S,18R,19R)-6-(aminomethyl)-19-decyl-9-(hydroxymethyl)-15-isobutyl-16,18-dimethyl-12-[(1S)-1-methylpropyl]-1-oxa-4,7,10,13,16-pentazacyclononadecane-2,5,8,11,14,17-hexone] returned an MIC of 25 µM (≈ 17.4 µg/mL).

Molecule `CC(C)C[C@H]1C(=O)N[C@@H](C2CCCCC2)C(=O)N[C@@H](CN)C(=O)N[C@@H]([C@H](C)O)C(=O)NCC(=O)O[C@H](CCC(C)(C)C)[C@@H](C)C(=O)N1C` [Example 63, (6S,9S,12S,15S,18R,19R)-9-(aminomethyl)-12-cyclohexyl-19-(3,3-dimethylbutyl)-6-((S)-1-hydroxyethyl)-15-isobutyl-16,18-dimethyl-1-oxa-4,7,10,13,16-pentaazacyclononadecane-2,5,8,11,14,17-hexaone] showed a minimum inhibitory concentration (MIC) of 4.4 µM (≈ 3 µg/mL).

As for `CCCCCCCCCC[C@H]1OC(=O)CNC(=O)[C@H](CO)NC(=O)[C@H](CO)NC(=O)[C@H](C(CC)CC)NC(=O)[C@H](CC(C)C)N(C)C(=O)[C@@H]1C` [Example 43, (6S,9S,12S,15S,18R,19R)-19-decyl-12-(1-ethylpropyl)-6,9-bis(hydroxymethyl)-15-isobutyl-16,18-dimethyl-1-oxa-4,7,10,13,16-pentazacyclononadecane-2,5,8,11,14,17-hexone], the MIC amounted to 13 µM (≈ 9.26 µg/mL).

In turn, `CCCCCC[C@H]1OC(=O)CNC(=O)[C@H]([C@H](C)O)NC(=O)[C@H](CN)NC(=O)[C@H](C2CCC(F)(F)CC2)NC(=O)[C@H](CC(C)C)N(C)C(=O)[C@@H]1C` (single isomer, unassigned) [Example 52] came in with a minimum inhibitory concentration (MIC) of 12 µM (≈ 8.6 µg/mL).
